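Grown in 96-well plates, cells were treated for 48 hours with each compound at five concentrations. Insufficient inhibition: endpoint recorded as highest concentration tested. GI50 marks 50% less growth.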 Active and inactive are the calls of the source. No stated cut-off is given here; in the data, active = GI50 up to about 1.1 µM and inactive = higher.
Experiments:
Experiment in all cases: NCI-60 cell line screen, 48 h
[1] = system: A498
[2] = system: COLO 205
[3] = system: RXF 393
[4] = system: MCF7
[5] = system: Malme-3M
[6] = system: HL-60
[7] = system: UO-31
[8] = system: PC-3
[9] = system: NCI/ADR-RES
[10] = system: T47D
[11] = system: SF-295
[12] = system: BT-549
[13] = system: HOP-62
[14] = system: SK-MEL-5
[15] = system: SNB-75
[16] = system: NCI-H460
[17] = system: EKVX
[18] = system: SR
[19] = system: LOX IMVI
[20] = system: SN12C
[21] = system: SF-268
[22] = system: NCI-H226
[23] = system: NCI-H522
[24] = system: NCI-H23
[25] = system: SK-OV-3
[26] = system: HOP-92
[27] = system: HCT-116
[28] = system: OVCAR-8
[29] = system: A549
[30] = system: IGROV-1
[31] = system: ACHN
[32] = system: K562
[33] = system: UACC-62
[34] = system: TK-10
[35] = system: CAKI-1
[36] = system: HCT-15
[37] = system: U-251
[38] = system: HT-29
[39] = system: 786-0
[40] = system: UACC-257
[41] = system: MOLT-4
[42] = system: KM12
[43] = system: CCRF-CEM
[44] = system: HCC 2998
[45] = system: SW-620
[46] = system: MDA-MB-231
[47] = system: SNB-19
[48] = system: Hs-578T
[49] = system: OVCAR-3
[50] = system: OVCAR-4
[51] = system: DU-145
[52] = system: MDA-MB-435
[53] = system: SK-MEL-28
[54] = system: MDA-N
[55] = system: OVCAR-5
[56] = system: M14
[57] = system: SK-MEL-2
[58] = system: RPMI-8226

In the case of `CCc1nnc(-n2c(C)nc3cc(Cl)ccc3c2=O)s1`, the GI50 [1] is reported as 39.9 µM (inactive), the GI50 [2] is reported as 24.4 µM (inactive) and the GI50 [3] is reported as 47.3 µM (inactive). The GI50 [4] was 31.9 µM (inactive), the GI50 [5] was 16 µM (inactive) and the GI50 [6] was 41 µM (inactive). For the same molecule, the GI50 [7] was 31.6 µM (inactive), the GI50 [8] was 52.8 µM (inactive) and the GI50 [9] was 39.6 µM (inactive). For the same molecule, the GI50 [10] was 27.9 µM (inactive), the GI50 [11] was 21.4 µM (inactive) and the GI50 [12] was 44.6 µM (inactive). For the same molecule, the GI50 [13] was 45.4 µM (inactive), the GI50 [14] was 21.3 µM (inactive) and the GI50 [15] was 34.9 µM (inactive). The GI50 [16] was 40.5 µM (inactive), the GI50 [17] was 49.2 µM (inactive) and the GI50 [18] was 34.5 µM (inactive). The GI50 [19] was 39.1 µM (inactive), the GI50 [20] was 34.2 µM (inactive) and the GI50 [21] was 37.8 µM (inactive). For the same molecule, the GI50 [22] was 43.1 µM (inactive), the GI50 [23] was 20.5 µM (inactive) and the GI50 [24] was 31.6 µM (inactive). For the same molecule, the GI50 [25] was 38.4 µM (inactive), the GI50 [26] was 27 µM (inactive) and the GI50 [27] was 26.4 µM (inactive). The GI50 [28] was 51.4 µM (inactive), the GI50 [29] was 31 µM (inactive) and the GI50 [30] was 40.7 µM (inactive). The GI50 [31] was 33.8 µM (inactive), the GI50 [32] was 29 µM (inactive) and the GI50 [33] was 22.1 µM (inactive). The GI50 [34] was 40.9 µM (inactive), the GI50 [35] was 80.9 µM (inactive) and the GI50 [36] was 44.1 µM. For the same molecule, the GI50 [37] was 42.7 µM (inactive), the GI50 [38] was 35.2 µM (inactive) and the GI50 [39] was 26.5 µM (inactive). The GI50 [40] was 39.4 µM (inactive), the GI50 [41] was 26.3 µM (inactive) and the GI50 [42] was 38.5 µM (inactive). The GI50 [43] was 19.6 µM (inactive), the GI50 [44] was 49.8 µM (inactive) and the GI50 [45] was 34.8 µM (inactive). For the same molecule, the GI50 [46] was 83 µM (inactive), the GI50 [47] was 36.1 µM (inactive) and the GI50 [48] was 28.2 µM (inactive). The GI50 [49] was 18.7 µM (inactive), the GI50 [50] was 28.8 µM (inactive) and the GI50 [51] was 41.6 µM (inactive). For the same molecule, the GI50 [52] was 35 µM (inactive), the GI50 [53] was 46.6 µM (inactive) and the GI50 [54] was 13.3 µM (inactive). The GI50 [55] was > 100 µM (inactive) and the GI50 [56] was 38.7 µM (inactive).
In the case of `CC(=O)OC1O[C@@H](C(C)(C)O)CC[C@@H]1[C@H]1CC[C@@]2(C)C3=C(CC[C@]12C)[C@@]1(C)C[C@@H](OC(=O)CC(C)(O)CC(=O)O)[C@H](OC(C)=O)C(C)(C)C1CC3` (some centres undefined), the GI50 [1] is reported as 19.2 µM (inactive), the GI50 [4] is reported as 18.3 µM (inactive) and the GI50 [5] is reported as 17.4 µM (inactive). The GI50 [6] was 24.4 µM (inactive), the GI50 [7] was 15 µM (inactive) and the GI50 [8] was 17 µM (inactive). For the same molecule, the GI50 [9] was 18.1 µM (inactive), the GI50 [57] was 16.4 µM (inactive) and the GI50 [10] was 19.8 µM (inactive). For the same molecule, the GI50 [58] was 23.3 µM (inactive), the GI50 [11] was 17.5 µM (inactive) and the GI50 [12] was 15.8 µM (inactive). For the same molecule, the GI50 [13] was 18.8 µM (inactive), the GI50 [14] was 19.2 µM (inactive) and the GI50 [16] was 18 µM (inactive). The GI50 [17] was 17.5 µM (inactive), the GI50 [18] was 23.4 µM (inactive) and the GI50 [19] was 17.7 µM (inactive). For the same molecule, the GI50 [20] was 19.2 µM (inactive), the GI50 [22] was 21.7 µM (inactive) and the GI50 [24] was 21.2 µM (inactive). For the same molecule, the GI50 [25] was 18.2 µM (inactive), the GI50 [26] was 16.7 µM (inactive) and the GI50 [27] was > 10 µM (inactive). For the same molecule, the GI50 [28] was 17.1 µM (inactive), the GI50 [29] was 17.2 µM (inactive) and the GI50 [30] was 19.2 µM (inactive). For the same molecule, the GI50 [31] was 18 µM (inactive), the GI50 [32] was 31.3 µM (inactive) and the GI50 [33] was 27.7 µM (inactive). For the same molecule, the GI50 [34] was 19.1 µM (inactive), the GI50 [35] was 15.8 µM (inactive) and the GI50 [36] was 22.4 µM. For the same molecule, the GI50 [37] was 16 µM (inactive), the GI50 [38] was 20.1 µM (inactive) and the GI50 [39] was 19.3 µM (inactive). The GI50 [40] was 17.5 µM (inactive), the GI50 [41] was 19.4 µM (inactive) and the GI50 [42] was 21.9 µM (inactive). The GI50 [43] was 20.8 µM (inactive), the GI50 [44] was 19 µM (inactive) and the GI50 [45] was 17.5 µM (inactive). For the same molecule, the GI50 [46] was 23 µM (inactive), the GI50 [47] was 17.7 µM (inactive) and the GI50 [48] was 19.5 µM (inactive). For the same molecule, the GI50 [49] was 18.6 µM (inactive), the GI50 [50] was 18 µM (inactive) and the GI50 [51] was 19.1 µM (inactive). The GI50 [52] was 16.8 µM (inactive), the GI50 [53] was 16.3 µM (inactive) and the GI50 [54] was 19.2 µM (inactive). The GI50 [55] was 18.3 µM (inactive) and the GI50 [56] was 19.5 µM (inactive).
